Patent EP0454060B1, “3-(Mercaptoalkyl)-quinazoline-2,4(1H,3H)-diones, processes for their preparation, and pharmaceutical compositions” (priority 1990, dated 1991)

The molecules below were run on SE-spezifischer rosettenbildender Zellen (assay: Rosette test (SE-specific rosettes)). Settings: oral administration.
Type: in vivo, Maus (Inzuchtstamm CBA)
Excerpt: Der Nachweis immunstimulierender Effekte wurde weiterhin an der Maus (Inzuchtstamm CBA) und u. a. mit Hilfe folgender Nachweismethoden geführt: • Plaque-Test zum Nachweis von SE-spezifischen IgM- und IgG-PBZ, • Rosettentest.
Aus den Werten wird deutlich, daß die Verbindungen der allgemeinen Formel I einen gut nachweisbaren Effekt auf die Effektor-T-Lymphozyten-abhängige verzögerte Uberempfindlichkeit haben. Kontaktdermatitis-Werte ab 120 (≙ 20 % Steigerung gegenüber der Kontrolle) bzw. unter 80 werden als Nachweis eines stimulatorischen bzw. suppressorischen Effektes angesehen. Antikörpertiter-Differenzen von >+1 bzw. <-1 verdeutlichen den stimulatorischen bzw. suppressorischen Effekt der Substanzen auf die humorale Immunantwort. 2. Untersuchungen zur immunstimulierenden Wirkung • 2.1 Plaque-Test zum Nachweis von SE-spezifischen IgM- und IgG-PBZ Zur Prüfung immunstimulierender Effekte wurde u. a. auch der Einfluß von Verbindungen der allgemeinen Formel I auf die humorale Immunantwort an Mäusen des Inzuchtstammes CBA und mittels Hämolyse-Plaque-Test (HPT) untersucht. Diese Technik erlaubt die quantitative und getrennte Erfassung IgM- und IgG-Antikörper produzierender Zellen (= Plaque bildende Zellen; PBZ). Die Immunisierung mit Schaferythrozyten (SE) erfolgte am Tag 0, die Substanzapplikation (Tagesdosis 1.10^-5 mol/kg Körpermasse; peroral) an den Tagen -1 bis +3 (zur Erfassung der IgM-PBZ) bzw. an den Tagen +1 bis +5 (zur Erfassung der IgG-PBZ). • 2.2 Ergebnisse: Durch tägliche und über 5 Tage gehende Gabe von 2,0 mg der Verbindung gemäß Beispiel 1 pro kg Körpermasse konnte die Zahl der IgM-PBZ auf einen Durchschnittswert von 352 % im Vergleich zur Kontrolle (100 %) gesteigert werden. Die gleiche Form der Behandlung führte zu einer Erhöhung der IgG-PBZ auf 497 % (Kontrolle: 100 %). In beiden Fällen erwies sich die Differenz zur Kontrolle im t-Test mit p < 0,001 als signifikant. […]

Row | Structure (SMILES) | SE-spezifischer rosettenbildender Zellen
1 | COc1cc2[nH]c(=O)n(CC(C)S)c(=O)c2cc1OC (centres unmarked) [Beispiel 14e, 6,7-Dimethoxy-3-(2-mercaptopropyl)-chinazolin-2,4(1H,3H)-dion] | signifikante Förderung
2 | O=c1[nH]c2ccccc2c(=O)n1CCCS [Beispiel 6, 3-(3-Mercaptopropyl)-chinazolin-2,4(1H,3H)-dion] | signifikante Förderung

Each molecule was assayed on Kontaktüberempfindlichkeit vom verzögerten Typ (Effektor-T-Lymphozyten-Aktivität) (assay: Percutaneous test for contact hypersensitivity after DNFB immunisation). Settings: Sensibilisierungsgrad versus control group; 2 mg/kg daily peroral, day +1 to +6; screening values; from 120 stimulatory, below 80 suppressive.
Type: in vivo, Meerschweinchen (Albino-Koloniezucht)
Excerpt: Der Nachweis einer immunregulatorischen Wirksamkeit wurde am Meerschweinchen (Albino-Koloniezucht) und u. a. mit Hilfe folgender Techniken geführt: • Perkutaner Test zum Nachweis einer Kontaktüberempfindlichkeit vom verzögerten Typ (Effektor-T-Lymphozyten-Aktivität), • Takatsy-Test zum Nachweis DNP-spezifischer Serumantikörper (humorale Immunantwort).
Der Nachweis der antiviralen Wirksamkeit erfolgte in vitro an Hühnerembryonalzellen mit Vertretern verschiedener Virusgruppen. 1. Untersuchungen zur immunregulatorischen Wirksamkeit 1.1 Perkutaner Test zum Nachweis einer Kontaktüberempfindlichkeit Die epikutane Applikation von Dinitrofluorbenzol (DNFB) führt beim Meerschweinchen und bei der Maus zur Entwicklung einer verzögerten Überempfindlichkeit, eines Immunstatus, der an die klonale Vermehrung TNP-spezifischer T-Lymphozyten (TDTH-Ly) gebunden ist. Erfolgt nach einer Latenzperiode von mindestens 5 Tagen eine erneute DNFB-Applikation, kommt es zu einer Freisetzung von Lymphokinen durch Reaktion mit den TDTH-Ly dieses Hautbereiches und dadurch zu einer lokal begrenzten Entzündungsreaktion. Sieben Tage nach der Immunisierung mit 1 %igem DNFB wurden die Flanken der Versuchstiere enthaart und durch Aufbringen je eines Tropfens 0,5 %, 0,1 %, 0,05 %, 0,025 % und 0,01 %iger DNFB-Lösung getestet. Die noch positive Konzentration ist dem Grad der Sensibilisierung umgekehrt proportional. Die Testergebnisse ergeben sich aus Stärke und Anzahl der positiven Hautreaktionen, der Stimulierungsindex (SI) aus dem Vergleich der Test- und Kontrolltiere. Die Substanzbehandlung erfolgte peroral. Mittels Schlundsonde wurde eine tägliche Dosis von 2 mg/kg Körpermasse als Suspension in Wasser gegeben. Behandlungsdauer: 1 Tag + 1 (ein Tag nach der Immunisierung) bis +6. Die Kontrolltiere erhielten nur die eingesetzte Lactose. 1.2 Takatsy-Test Nach Immunisierung mit Dinitrofluorbenzol (DNFB) kommt es beim Meerschweinchen auch zur Bildung DNP-spezifischer humoraler Antikörper, die bevorzugt der IgG1-Substanzklasse angehören. 14 Tage nach primärer epikutaner Applikation von DNFB wurde den Versuchstieren Blut durch Herzpunktion entnommen. Die Bestimmung der Antikörperkonzentration erfolgte nach einer von Takatsy beschriebenen Methode (Takatsy, G.: A new method for the preparation of serial dilutions in a quick and accurate way. Kiserletes Orvostudomany 2 (1950) 263 - 396). Als Indikatorzellen wurden TNP-beladene Schaferythrozyten verwendet (Kopplung nach Rittenberg und Pratt; Rittenberg, M. B. and Pratt, K. L.: Antitrinitrophenyl (TNP) plaque assay. Primary response of BALB/c mice to soluble and particulate immunogen. Proc. Soc. exp. Biol. Med., 132 (1969) 575 - 579). 1.3 Ergebnisse Sensibilisierungsgrad (%) und Serumantikörperkonzentration (AK-Titer-Differenz) gegenüber der jeweiligen Kontrollgruppe (Screening-Werte)
Aus den Werten wird deutlich, daß die Verbindungen der allgemeinen Formel I einen gut nachweisbaren Effekt auf die Effektor-T-Lymphozyten-abhängige verzögerte Uberempfindlichkeit haben. Kontaktdermatitis-Werte ab 120 (≙ 20 % Steigerung gegenüber der Kontrolle) bzw. unter 80 werden als Nachweis eines stimulatorischen bzw. suppressorischen Effektes angesehen. Antikörpertiter-Differenzen von >+1 bzw. <-1 verdeutlichen den stimulatorischen bzw. suppressorischen Effekt der Substanzen auf die humorale Immunantwort. 2. Untersuchungen zur immunstimulierenden Wirkung • 2.1 Plaque-Test zum Nachweis von SE-spezifischen IgM- und IgG-PBZ Zur Prüfung immunstimulierender Effekte wurde u. a. auch der Einfluß von Verbindungen der allgemeinen Formel I auf die humorale Immunantwort an Mäusen des Inzuchtstammes CBA und mittels Hämolyse-Plaque-Test (HPT) untersucht. Diese Technik erlaubt die quantitative und getrennte Erfassung IgM- und IgG-Antikörper produzierender Zellen (= Plaque bildende Zellen; PBZ). […]

Row | Structure (SMILES) | Kontaktdermatitis (Kontrolle: 100) 24-Stunden-Reaktion [%] | Kontaktdermatitis (Kontrolle: 100) 48-Stunden-Reaktion [%]
3 | CC(S)Cn1c(=O)[nH]c2ccccc2c1=O (centres unmarked) [Beispiel 7, 3-(2-Mercaptopropyl)-chinazolin-2,4(1H,3H)-dion] | 230 | –
4 | O=c1[nH]c2ccc(Cl)cc2c(=O)n1CCCS [Beispiel 8, 6-Chlor-3-(3-mercaptopropyl)-chinazolin-2,4(1H,3H)-dion] | 100 | 115
5 | Cc1ccc2[nH]c(=O)n(CCS)c(=O)c2c1 [Beispiel 14a, 6-Methyl-3-(2-mercaptoethyl)-chinazolin-2,4(1H,3H)-dion] | 60 | 60
6 | Cc1ccc2[nH]c(=O)n(CCCS)c(=O)c2c1 [Beispiel 12, 6-Methyl-3-(3-mercaptopropyl)-chinazolin-2,4(1H,3H)-dion] | 120 | 130
7 | O=c1[nH]c2ccc(F)cc2c(=O)n1CCCS [Beispiel 14d, 6-Fluor-3-(3-mercaptopropyl)-chinazolin-2,4(1H,3H)-dion] | 100 | 150
8 | O=c1[nH]c2ccc(Br)cc2c(=O)n1CCS [Beispiel 5, 6-Brom-3-(2-mercaptoethyl)-chinazolin-2,4(1H,3H)-dion] | 150 | 120
9 | O=c1[nH]c2ccc(Br)cc2c(=O)n1CCCS [Beispiel 14b, 6-Brom-3-(3-mercaptopropyl)-chinazolin-2 4(1H 3H)-dion] | 105 | 100
10 | COc1cc2[nH]c(=O)n(CC(C)S)c(=O)c2cc1OC (centres unmarked) [Beispiel 14e, 6,7-Dimethoxy-3-(2-mercaptopropyl)-chinazolin-2,4(1H,3H)-dion] | 100 | –
11 | O=c1[nH]c2ccccc2c(=O)n1CCCS [Beispiel 6, 3-(3-Mercaptopropyl)-chinazolin-2,4(1H,3H)-dion] | 70 | 40
12 | O=c1[nH]c2ccc(F)cc2c(=O)n1CCS [Beispiel 14c, 6-Fluor-3-(2-mercaptoethyl)-chinazolin-2,4(1H 3H)-dion] | 90 | 105
13 | O=c1[nH]c2ccc(Cl)cc2c(=O)n1CCS [Beispiel 13, 6-Chlor-3-(2-mercaptoethyl)-chinazolin-2,4(1H,3H)-dion] | 120 | 130
14 | COc1cc2[nH]c(=O)n(CCS)c(=O)c2cc1OC [Beispiel 3, 3-(2-Mercaptoethyl)-6,7-dimethoxychinazolin-2,4(1H,3H)-dion] | 100 | –
